# According to patent publication US8946426B2, “Substituted bicyclic heterocyclic compounds as gamma secretase modulators” (Janssen Pharmaceuticals, Inc., priority 2009, dated 2015):
# Legend:
# Aβtotal [1] = assay: Method 1: Aβtotal sandwich ELISA in supernatant of SKNBE2 cells carrying APP 695-wild type (Tables 7a, 7b); format: cell-based
# Outline: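 SKNBE2 cells expressing wild-type APP695 were exposed to compound for 18 Hours in Ultraculture with 1% glutamine. Aβtotal in the supernatant was read by 6E10-capture/biotinylated 4G8 sandwich ELISA with a fluorogenic peroxidase read-out, and WST-1 checked toxicity. IC50 came from a 4-parameter fit of percent inhibition or percent of control versus concentration.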
# Aβtotal [2] = assay: In vivo efficacy: Aβtotal lowering in brain after single oral dose (Table 8); settings: mouse brain soluble fraction, ELISA, compared to untreated animals
# Source text: (§1) To determine whether acute administration of an Aβ42 lowering agent would reduce Aβ42 levels in vivo, non-transgenic rodents, e.g. mice or rats were used. Alternatively, two to three month old Tg2576 mice expressing APP695 containing the “Swedish” variant can be used or a transgenic mouse model developed by Dr. Fred Van Leuven (K.U.Leuven, Belgium) and co-workers, with neuron-specific expression of a clinical mutant of the human amyloid precursor protein [V7171] (Moechars et al., 1999 J. Biol. Chem. 274, 6483). Young transgenic mice have high levels of Aβ in the brain but no detectable Aβ deposition. At approximately 6-8 months of age, the transgenic mice start to display spontaneous, progressive accumulation of β-amyloid (Aβ) in the brain, eventually resulting in amyloid plaques within the subiculum, hippocampus and cortex. Animals treated with the Aβ42 lowering agent were examined and compared to those untreated or treated with vehicle and brain levels of soluble Aβ42 and total Aβ would be quantitated by standard techniques, for example, using ELISA. Treatment periods varied from hours to days and were adjusted based on the results of the Aβ42 lowering once a time course of onset of effect could be established.
# (§2) A typical protocol for measuring Aβ42 lowering in vivo is shown but it is only one of many variations that could be used to optimize the levels of detectable Aβ. For example, Aβ42 lowering compounds were formulated in 20% of Captisol® (a sulfobutyl ether of β-cyclodextrin) in water or 20% hydroxypropyl β cyclodextrin. The Aβ42 lowering agents were administered as a single oral dose or by any acceptable route of administration to overnight fasted animals. After four hours, the animals were sacrificed and Aβ42 levels were analysed.
# (§3) Blood was collected by decapitation and exsanguinations in EDTA-treated collection tubes. Blood was centrifuged at 1900 g for 10 min at 4° C. and the plasma recovered and flash frozen for later analysis. The brain was removed from the cranium and hindbrain. The cerebellum was removed and the left and right hemisphere were separated. The left hemisphere was stored at −18° C. for quantitative analysis of test compound levels. The right hemisphere was rinsed with phosphate-buffered saline (PBS) buffer and immediately frozen on dry ice and stored at −80° C. until homogenization for biochemical assays.
# (§4) Mouse brains were resuspended in 10 volumes of 0.4% DEA (diethylamine)/50 mM NaCl pH 10 (for non-transgenic animals) or 0.1% 3-[(3-cholamidopropyl)-dimethyl-ammonio]-1-propanesulfonate (CHAPS) in tris buffered saline (TBS) (for transgenic animals) containing protease inhibitors (Roche-11873580001 or 04693159000 per gram of tissue, e.g. for 0.158 g brain, add 1.58 ml of 0.4% DEA. All samples were sonicated for 30 sec on ice at 20% power output (pulse mode). Homogenates were centrifuged at 221.300×g for 50 min. The resulting high speed supernatants were then transferred to fresh tubes and were optionally further purified before the next step. A portion of the supernatant was neutralized with 10% 0.5 M Tris-HCl and this was used to quantify Aβtotal.
# (§5) The obtained supernatants were purified with Water Oasis HLB reverse phase columns (Waters Corp., Milford, Mass.) to remove non-specific immunoreactive material from the brain lysates prior subsequent Aβ detection. Using a vacuum manifold, all solutions were passed through the columns at a rate of approximately 1 ml per minute, so the vacuum pressure was adjusted accordingly throughout the procedure. Columns were preconditioned with 1 ml of 100% MeOH, before equilibration with 1 ml of H2O. Non-neutralized brain lysates were loaded onto the columns. The loaded samples were then washed twice with the first wash performed with 1 ml of 5% MeOH, and the second wash with 1 ml of 30% MeOH. Finally, the Aβ was eluted from the columns and into 100×30 mm glass tubes, with a solution of 90% MeOH with 2% NH4OH. […]
# Aβ42 [3] = assay: Method 1: Aβ42 sandwich ELISA in supernatant of SKNBE2 cells carrying APP 695-wild type (Tables 7a, 7b); format: cell-based
# Outline: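 IC50 values were derived with a 4-parameter equation, fitting either percent inhibition or percent of compound-free Aβ42 as the control. The Aβ42 came from supernatants of APP695 wild-type SKNBE2 cells treated for 18 hours. It was measured by ELISA with anti-Aβ42 capture, biotinylated 3D6 and TMB absorbance at 450 nm.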
# Aβ42 [4] = assay: In vivo efficacy: Aβ42 lowering in brain after single oral dose (Table 8); settings: mouse brain soluble fraction, ELISA, compared to untreated animals
# Source text: as §1, §2, §3, §4, §5
# [5] = test system: Notch-processing activity of the γ-secretase-complex; assay: Notch cell-free assay (NICD production from recombinant Notch substrate N99); format: biochemical; settings: 1 μM test compound; 0.3-0.5 μM mouse Notch substrate; enriched gamma secretase; 37° C., 6 to 22 h; western blot; control GSI concentration not given
# Protocol: The Notch transmembrane domain is cleaved by gamma secretase to release Notch Intracellular C-terminal Domain (NICD).
# To monitor the effect of compounds on NICD production, a recombinant Notch substrate (N99) was prepared. The Notch substrate, comprised of mouse Notch fragment (V1711-E1809), an N-terminal methionine and a C-terminal FLAG sequence ([…]), was expressed in E. coli and purified on a column containing an anti-FLAG M2 affinity matrix.
# A typical Notch cell-free assay consisted of 0.3-0.5 μM Notch substrate, an enriched preparation of gamma secretase and 1 μM of a test compound (compounds 16, 18 and 106 of the present invention). Controls included a gamma secretase inhibitor (GSI), such as (2S)—N-[2-(3,5-difluorophenyl)acetyl]-L-alanyl-2-phenyl-glycine 1,1-dimethylethyl ester (DAPT) or (2S)-2-hydroxy-3-methyl-N-[(1S)-1-methyl-2-oxo-2-[[(1S)-2,3,4,5-tetrahydro-3-methyl-2-oxo-1H-3-benzazepin-1-yl]amino]ethyl]-butanamide (Semagacestat), and DMSO, the final concentration of DMSO being 1%. Recombinant Notch substrate was pre-treated with 17 μM DTT (1,4-dithiothreitol) and 0.02% SDS (Sodium Dodecyl Sulfate) and heated at 65° C. for 10 min. The mixture of substrate, gamma secretase and compound/DMSO was incubated at 37° C. for 6 to 22 hours (h). Six-hour incubation was sufficient to produce the maximal amount of NICD and the cleaved product remained stable for an additional 16 H. Reaction products were processed for SDS PAGE (Sodium Dodecyl Sulfate-Poly Acrylamide Gel Electrophoresis) and western blotting. Blots were probed with an anti-Flag M2 antibody, followed by LI-COR infrared secondary antibody, and analyzed with the Odyssey Infrared Imaging System (LI-COR® Biosciences).
# Aβtotal [6] = assay: Method 2: Aβtotal Alphalisa in supernatant of SKNBE2 cells carrying APP 695-wild type (Table 7c); format: cell-based; settings: Method 2, Alphalisa, overnight incubation
# Outline: (§6)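 Secreted Aβ measured by AlphaLISA sandwich immunoassay after overnight compound exposure (37° C, 10^4 cells/well) of APP695-wild-type SKNBE2 cells. Aβtotal pairs antibodies JRF/AβN/25 and biotinylated 4G8; Aβ42 pairs JRF/cAβ42/26 and JRF/AβN/25. Values normalised to compound-free control and fitted with a four-parameter equation for IC50.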
# Aβ42 [7] = assay: Method 2: Aβ42 Alphalisa in supernatant of SKNBE2 cells carrying APP 695-wild type (Table 7c); format: cell-based; settings: Method 2, Alphalisa, overnight incubation
# Outline: as §6
# mouse Notch2 = assay: Notch cell-based assay (N2-CHO/DL-CHO co-culture, Dual-Glo luciferase, NICD production); settings: Mus musculus; N2-CHO/DL-CHO co-culture 16 H; five-point curve 3 μM-0.3 nM; read-out: average IC50 values from the Notch cell-based assay (luciferase assay readouts)
# Source text: The Notch cell-based assay was based on the interaction of Notch and its ligand in a co-culture system and utilized the Dual-Glo Luciferase Assay System (Promega) to monitor NICD production. Two stable cell lines, N2-CHO and DL-CHO, were established to express full-length mouse Notch2 and Delta respectively. Cells that expressed mouse Notch were also transfected with two plasmids, pTP1-Luc and pCMV-RLuc, to express firefly and Renilla luciferase. Expression of firefly luciferase was under the control of TP1 promoter that responded to NICD activation.
# N2-CHO cells were seeded at 1×10^5/well in 24-well plates the day before transfection. On the second day, cells were double transfected with 3 μg/well pTP1-Luc (expressing firefly luciferase) and 0.3 ng/well pCMV-RLuc (expressing Renilla luciferase). After 6 H incubation, transfected N2-CHO cells were washed and DL-CHO cells (2×10^5 cells/well) were added.
# Compounds were pre-mixed with DL-CHO cell suspension in a five-point curve. Typically, compound treatment was performed in duplicate with a serial 1:10 dilution (3 μM-0.3 nM) in DMSO. The final concentration of DMSO in a given culture was 1%. Controls included non-transfected cells and transfected cells treated with a GSI or DMSO only. Luciferase assays were performed after 16 H co-culture and compound treatment.
# The luciferase assay was carried out according to manufacture's instructions. Briefly, cells were washed with PBS (Phosphate Buffered Saline), lysed with Passive Lysis Buffer (Promega), and incubated at room temperature for 20 min. Lysates were mixed with Dual-Glo Luciferase Reagent and the firefly luciferase activity was measured by reading the luminescence signal in the EnVision 2101 Multilabel reader. Dual-Glo Stop & Glo Reagent was then added to each well and the Renilla luciferase signal was measured.
# [8] = Homo sapiens, SKNBE2, Table 7b, averaged IC50, non-linear regression of percentage of control vs log concentration, 4-parameter equation
# [9] = Homo sapiens, Table 7a, SKNBE2 cells, compounds 18 h, XLfit 4-parameter fit of percent inhibition, top/bottom fixed to 100/0, hill slope 1
# [10] = Table 7b, averaged IC50, non-linear regression of percentage of control vs log concentration, 4-parameter equation
Compound,IC50 (Aβtotal [1]; [8]),IC50 (Aβtotal [1]; [9]),melting point,Aβtotal (% Ctrl)_Mean (Aβtotal [2]),IC50 (Aβ42 [3]; [8]),IC50 (Aβ42 [3]; [9]),Aβ42 (% Ctrl)_Mean (Aβ42 [4]),effect on the Notch-processing activity of the γ-secretase-complex (production of NICD) [5],IC50 (mouse Notch2),further results
COc1cc(Nc2cccc3c2nc(-c2ccc(F)cc2)n3C)ccc1-c1cnn(C)c1 [Compound 13],> 3 µM,> 3 µM,157.6 °C,105 % Ctrl,0.063 µM,0.065 µM,87 % Ctrl,,,
COc1cc(Nc2nccc3c2nc(-c2ccc(F)cc2)n3C)ccc1-c1cnc(C)o1 [Compound 14],> 3 µM,> 3 µM,204.9 °C,91 % Ctrl,0.105 µM,0.109 µM,78 % Ctrl,,,
Cc1ncc(-c2ccc(Nc3cc(F)cc4c3nc(-c3ccc(F)cc3)n4C)cn2)o1 [Compound 106],,,,,,,,did not show an effect,,IC50 (Aβtotal [1]; [10]): > 1 µM; IC50 (Aβtotal [6]): > 10 µM; IC50 (Aβ42 [3]; [10]): 0.01 µM; IC50 (Aβ42 [7]): 0.024 µM
COC(=O)c1cc(Nc2ccc(-c3ocnc3C)c(OC)c2)c2nc(CC(C)C)cn2c1 [Compound 162],> 10 µM,,157.1 °C,,0.025 µM,,,,,IC50 (Aβtotal [6]; Homo sapiens): > 10 µM; IC50 (Aβ42 [7]; Homo sapiens): 0.032 µM
"C[C@H](NC(=O)Cc1cc(F)cc(F)c1)C(=O)NC(C(=O)OC(C)(C)C)c1ccccc1 (stereo partly drawn) [DAPT, (2S)—N-[2-(3,5-difluorophenyl)acetyl]-L-alanyl-2-phenyl-glycine 1,1-dimethylethyl ester, reference compound]",,,,,,,,blocked,0.045 µM,
"CC(C)[C@H](O)C(=O)N[C@@H](C)C(=O)N[C@@H]1C(=O)N(C)CCc2ccccc21 [Semagacestat, (2S)-2-hydroxy-3-methyl-N-[(1S)-1-methyl-2-oxo-2-[[(1S)-2,3,4,5-tetrahydro-3-methyl-2-oxo-1H-3-benzazepin-1-yl]amino]ethyl]-butanamide, reference compound]",,,,,,,,blocked,0.04 µM,
